Experimental data taken from US10112941B2, “Tricyclic compounds as anticancer agents” (BRISTOL-MYERS SQUIBB COMPANY, priority 2013, dated 2018).

Molecular target: BRD4 (Homo sapiens, UniProt O60885)
Assay: Time Resolved Fluorescence Resonance Energy Transfer (TR-FRET) binding assay, BRD4
Details: one of the FRET assays described; read-out: FRET BRD4 IC50

Structure (SMILES)	IC50 [nM]
Cc1nnn(C)c1-c1cnc2c3c(F)ccc(S(C)(=O)=O)c3n([C@H](c3ccccc3)C3CCOCC3)c2c1 [Example 181, 5-{9-Fluoro-6-methanesulfonyl-5-[(S)-oxan-4-yl(phenyl)methyl]-5H-pyrido[3,2-b]indol-3-yl}-1,4-dimethyl-1H-1,2,3-triazole]	< 5
COc1ccc(S(C)(=O)=O)c2c1c1ncc(-c3c(C)nnn3C)cc1n2[C@H](c1ccccc1)C1CCOCC1 [Example 182, 5-{6-Methanesulfonyl-9-methoxy-5-[(S)-oxan-4-yl(phenyl)methyl]-5H-pyrido[3,2-b]indol-3-yl}-1,4-dimethyl-1H-1,2,3-triazole]	< 5
[2H]C([2H])([2H])c1nnn(C)c1-c1cnc2c3c(OC)ccc(S(C)(=O)=O)c3n([C@H](c3ccccc3)C3CCOCC3)c2c1 [Example 183, 5-{6-Methanesulfonyl-9-methoxy-5-[(S)-oxan-4-yl(phenyl)methyl]-5H-pyrido[3,2-b]indol-3-yl}-4-(^2H3)methyl-1-methyl-1H-1,2,3-triazole]	< 5
[2H]C([2H])([2H])Oc1ccc(S(=O)(=O)C([2H])([2H])[2H])c2c1c1ncc(-c3c(C)nnn3C)cc1n2[C@H](c1ccccc1)C1CCOCC1 [Example 184, 5-[6-(^2H3)Methanesulfonyl-9-(^2H3)methoxy-5-[(S)-oxan-4-yl(phenyl)methyl]-5H-pyrido[3,2-b]indol-3-yl]-1,4-dimethyl-1H-1,2,3-triazole]	< 5
COc1ccc(S(C)(=O)=O)c2c1c1ncc(-c3c(C)noc3C)cc1n2[C@H](c1ccccc1)C1CCOCC1 [Example 185, 4-{6-Methanesulfonyl-9-methoxy-5-[(S)-oxan-4-yl(phenyl)methyl]-5H-pyrido[3,2-b]indol-3-yl}-3,5-dimethyl-1,2-oxazole]	< 5
COc1ccc(S(C)(=O)=O)c2c1c1ncc(-c3c(C)noc3C)cc1n2[C@H](c1ccccc1F)C1CCOCC1 [Example 186, 4-{5-[(S)-(2-Fluorophenyl)(oxan-4-yl)methyl]-6-methanesulfonyl-9-methoxy-5H-pyrido[3,2-b]indol-3-yl}-3,5-dimethyl-1,2-oxazole]	< 5
COc1ccc(S(C)(=O)=O)c2c1c1ncc(-c3c(C)noc3C)cc1n2[C@H](c1ccc(F)cc1)C1CCOCC1 [Example 187, 4-{5-[(S)-(4-Fluorophenyl)(oxan-4-yl)methyl]-6-methanesulfonyl-9-methoxy-5H-pyrido[3,2-b]indol-3-yl}-3,5-dimethyl-1,2-oxazole]	< 5
COc1ccc(S(C)(=O)=O)c2c1c1ncc(-c3c(C)nnn3C)cc1n2[C@H](c1ccccc1F)C1CCOCC1 [Example 188, 5-{5-[(S)-(2-Fluorophenyl)(oxan-4-yl)methyl]-6-methanesulfonyl-9-methoxy-5H-pyrido[3,2-b]indol-3-yl}-1,4-dimethyl-1H-1,2,3-triazole]	< 5
[2H]C([2H])([2H])c1nnn(C)c1-c1cnc2c3c(OC)ccc(S(C)(=O)=O)c3n([C@H](c3ccccc3F)C3CCOCC3)c2c1 [Example 189, 5-{5-[(S)-(2-Fluorophenyl)(oxan-4-yl)methyl]-6-methanesulfonyl-9-methoxy-5H-pyrido[3,2-b]indol-3-yl}-4-(^2H3)methyl-1-methyl-1H-1,2,3-triazole]	< 5
COc1ccc(S(C)(=O)=O)c2c1c1ncc(-c3c(C)nnn3C)cc1n2[C@H](c1ccc(F)cc1)C1CCOCC1 [Example 190, 5-{5-[(S)-(4-Fluorophenyl)(oxan-4-yl)methyl]-6-methanesulfonyl-9-methoxy-5H-pyrido[3,2-b]indol-3-yl}-1,4-dimethyl-1H-1,2,3-triazole]	< 5
[2H]C([2H])([2H])c1nnn(C)c1-c1cnc2c3c(OC)ccc(S(C)(=O)=O)c3n([C@H](c3ccc(F)cc3)C3CCOCC3)c2c1 [Example 191, 5-{5-[(S)-(4-Fluorophenyl)(oxan-4-yl)methyl]-6-methanesulfonyl-9-methoxy-5H-pyrido[3,2-b]indol-3-yl}-4-(^2H3)methyl-1-methyl-1H-1,2,3-triazole]	< 5
[2H]C([2H])([2H])c1onc(C)c1-c1cnc2c3ccc(C(C)(C)O)cc3n([C@H](c3ccccc3)C3CCOCC3)c2c1 [Example 192, 2-{3-[5-(^2H3)Methyl-3-methyl-1,2-oxazol-4-yl]-5-[(S)-oxan-4-yl(phenyl)methyl]-5H-pyrido[3,2-b]indol-7-yl}propan-2-ol]	< 5
[2H]C([2H])([2H])c1onc(C)c1-c1cnc2c3c(OC)ccc(S(=O)(=O)C([2H])([2H])[2H])c3n([C@H](c3ccccc3)C3CCOCC3)c2c1 [Example 193, 4-[6-(^2H3)Methanesulfonyl-9-methoxy-5-[(S)-oxan-4-yl(phenyl)methyl]-5H-pyrido[3,2-b]indol-3-yl]-5-(^2H3)methyl-3-methyl-1,2-oxazole]	< 5
Cc1nnn(C)c1-c1cnc2c3c(F)cc(S(C)(=O)=O)cc3n([C@H](c3ccccc3)C3CCOCC3)c2c1 [Example 194, 5-{9-Fluoro-7-methanesulfonyl-5-[(S)-oxan-4-yl(phenyl)methyl]-5H-pyrido[3,2-b]indol-3-yl}-1,4-dimethyl-1H-1,2,3-triazole]	< 5
[2H]C([2H])([2H])c1nnn(C)c1-c1cnc2c3c(F)cc(S(C)(=O)=O)cc3n([C@H](c3ccccc3)C3CCOCC3)c2c1 [Example 195, 5-{9-Fluoro-7-methanesulfonyl-5-[(S)-oxan-4-yl(phenyl)methyl]-5H-pyrido[3,2-b]indol-3-yl}-4-(^2H3)methyl-1-methyl-1H-1,2,3-triazole]	< 5
[2H]C([2H])([2H])c1nnn(C)c1-c1cnc2c3c(F)cc(S(C)(=O)=O)cc3n([C@H](c3ccccc3F)C3CCOCC3)c2c1 [Example 196, 5-{9-Fluoro-5-[(S)-(2-fluorophenyl)(oxan-4-yl)methyl]-7-methanesulfonyl-5H-pyrido[3,2-b]indol-3-yl}-4-(^2H3)methyl-1-methyl-1H-1,2,3-triazole]	< 25
[2H]C([2H])([2H])c1nnn(C)c1-c1cnc2c3c(OC)cc(S(C)(=O)=O)cc3n([C@H](c3ccccc3)C3CCOCC3)c2c1 [Example 197, 5-{7-Methanesulfonyl-9-methoxy-5-[(S)-oxan-4-yl(phenyl)methyl]-5H-pyrido[3,2-b]indol-3-yl}-4-(^2H3)methyl-1-methyl-1H-1,2,3-triazole]	< 5
[2H]C([2H])([2H])c1nnn(C)c1-c1cnc2c3c(OC)cc(S(C)(=O)=O)cc3n([C@H](c3ccccc3F)C3CCOCC3)c2c1 [Example 198, 5-{5-[(S)-(2-Fluorophenyl)(oxan-4-yl)methyl]-7-methanesulfonyl-9-methoxy-5H-pyrido[3,2-b]indol-3-yl}-4-(^2H3)methyl-1-methyl-1H-1,2,3-triazole]	< 5
[2H]C([2H])([2H])c1nnn(C)c1-c1cnc2c3c(F)cc(S(C)(=O)=O)cc3n([C@H](c3ccc(F)cc3)C3CCOCC3)c2c1 [Example 201, 5-{9-Fluoro-5-[(S)-(4-fluorophenyl)(oxan-4-yl)methyl]-7-methanesulfonyl-5H-pyrido[3,2-b]indol-3-yl}-4-(^2H3)methyl-1-methyl-1H-1,2,3-triazole]	< 5
[2H]C([2H])([2H])c1nnn(C)c1-c1cnc2c3c(OC)cc(S(C)(=O)=O)cc3n([C@H](c3ccc(F)cc3)C3CCOCC3)c2c1 [Example 202, 5-{5-[(S)-(4-Fluorophenyl)(oxan-4-yl)methyl]-7-methanesulfonyl-9-methoxy-5H-pyrido[3,2-b]indol-3-yl}-4-(^2H3)methyl-1-methyl-1H-1,2,3-triazole]	< 5
[2H]C([2H])([2H])c1nnn(C)c1-c1cnc2c3ccc(C(C)(C)O)cc3n(C(c3ccccc3)C3CCC(F)(F)CC3)c2c1 (stereo not drawn) [Example 204, 2-{5-[(4,4-Difluorocyclohexyl)(phenyl)methyl]-3-[4-(^2H3)methyl-1-methyl-1H-1,2,3-triazol-5-yl]-5H-pyrido[3,2-b]indol-7-yl}propan-2-ol]	< 5
[2H]C([2H])([2H])c1nnn(C)c1-c1cnc2c3c(OC)cc(S(C)(=O)=O)cc3n(C(c3ncccc3F)C3CCOCC3)c2c1 (stereo not drawn) [Example 207, 3-Fluoro-2-[{7-methanesulfonyl-9-methoxy-3-[4-(^2H3)methyl-1-methyl-1H-1,2,3-triazol-5-yl]-5H-pyrido[3,2-b]indol-5-yl}(oxan-4-yl)methyl]pyridine]	< 5
[2H]C([2H])([2H])c1nnn(C)c1-c1cnc2c3c(OC)cc(S(C)(=O)=O)cc3n(C(c3ncccc3F)C3CCOCC3)c2c1 (stereo not drawn) [Example 208, 3-Fluoro-2-[{7-methanesulfonyl-9-methoxy-3-[4-(^2H3)methyl-1-methyl-1H-1,2,3-triazol-5-yl]-5H-pyrido[3,2-b]indol-5-yl}(oxan-4-yl)methyl]pyridine]	< 5
[2H]C([2H])([2H])c1nnn(C)c1-c1cnc2c3c(OCC)cc(S(C)(=O)=O)cc3n(C(c3ccccc3)C3CCC(F)(F)CC3)c2c1 [Example 209, 5-{5-[(S)-(4,4-Difluorocyclohexyl)(phenyl)methyl]-9-ethoxy-7-methanesulfonyl-5H-pyrido[3,2-b]indol-3-yl}-4-(^2H3)methyl-1-methyl-1H-1,2,3-triazole]	< 5
[2H]C([2H])([2H])c1nnn(C)c1-c1cnc2c3c(OCC)cc(S(C)(=O)=O)cc3n(C(c3ccccc3)C3CCC(F)(F)CC3)c2c1 [Example 210, 5-{5-[(S)-(4,4-Difluorocyclohexyl)(phenyl)methyl]-9-ethoxy-7-methanesulfonyl-5H-pyrido[3,2-b]indol-3-yl}-4-(^2H3)methyl-1-methyl-1H-1,2,3-triazole]	< 5
[2H]C([2H])([2H])c1nnn(C)c1-c1cnc2c3c(F)cc(S(C)(=O)=O)cc3n(C(c3ncccc3F)C3CCC(F)(F)CC3)c2c1 (stereo not drawn) [Example 211, 2-[(4,4-Difluorocyclohexyl)({9-fluoro-7-methanesulfonyl-3-[4-(^2H3)methyl-1-methyl-1H-1,2,3-triazol-5-yl]-5H-pyrido[3,2-b]indol-5-yl})methyl]-3-fluoropyridine]	< 5
[2H]C([2H])([2H])c1nnn(C)c1-c1cnc2c3c(F)cc(S(C)(=O)=O)cc3n(C(c3ncccc3F)C3CCC(F)(F)CC3)c2c1 (stereo not drawn) [Example 212, 2-[(4,4-Difluorocyclohexyl)({9-fluoro-7-methanesulfonyl-3-[4-(^2H3)methyl-1-methyl-1H-1,2,3-triazol-5-yl]-5H-pyrido[3,2-b]indol-5-yl})methyl]-3-fluoropyridine]	< 5
